According to ChEMBL document CHEMBL4261500, “New tricks for human farnesyltransferase inhibitor: cancer and beyond” (Medchemcomm, 2017):

How the values were obtained:
[1] = molecular target: Protein farnesyltransferase (Homo sapiens, UniProt P49354+P49356); test: Inhibition of human EC17 cell-derived FTase using recombinant GST-tagged H-Ras/(3H)-FPP as substrate incubated for 1 hr by liquid scintillation counting method; type: protein-complex assay
A-431 = test: Cytotoxicity against human A431 cells; type: cell-based
A549 = test: Cytotoxicity against human A549 cells assessed as decrease in cell viability after 48 hrs by MTT assay; type: functional, cell-based; conditions: A549, 48 h
[2] = molecular target: Protein farnesyltransferase (Rattus norvegicus, UniProt Q02293+Q04631); test: Inhibition of recombinant rat FTase alpha/beta expressed in Escherichia coli using NBD-FPP/GST-tagged H-Ras as substrate incubated for 2 hrs by SDS-PAGE method

IC50 [1] [µM] | IC50 [2] [µM] | SMILES | IC50 (A-431) [µM] | IC50 (A549) [µM]
0.86 | – | CC[C@@]1(O)C[C@H](O[C@H]2C[C@H]([N+](C)(C)Cc3ccccc3)[C@@H](O[C@H]3C[C@H](O)[C@H](O[C@H]4CCC(=O)[C@H](C)O4)[C@H](C)O3)[C@H](C)O2)c2c(cc3c(c2O)C(=O)c2c(O)cccc2C3=O)[C@H]1C(=O)OC | > 10 | –
– | 2.99 | COC1=C(OC)[C@H](O)[C@H](C/C=C(\C)CC/C=C(\C)CCC=C(C)C)[C@@H](C)C1=O [ANTROQUINONOL] | – | 3.24
